Assay: Systemic exposure to CBD after dermal application

SMILES: C=C(C)[C@@H]1CCC(C)=C[C@H]1c1c(O)cc(CCCCC)cc1O [CBD, cannabidiol]
- reach of the bloodstream / systemic circulation: does not reach the bloodstream

From US20220110888A1, “COMPOSITION FOR THE TREATMENT OF PSORIASIS” (Charlotte's Web, Inc., priority 2020, published 2022)
